Measurements: paper PMC10611828 (European Journal of Nuclear Medicine and Molecular Imaging, 2023)

Tests used:
[1] = Stability in mouse serum at 37 °C (radio-HPLC); format: in vitro ADME; conditions: 0 h
Procedure: (§1) The ^177Lu-labeled peptides were incubated in 300-μL phosphate buffered saline (PBS; Gibco, ThermoFisher, The Netherlands) at 37 °C, and their stability was verified after 1, 4, 24, 48, and 72 h by radio-HPLC (Supplementary Fig. 2). The stability in serum was determined by incubating the radiolabeled compounds into 300 μL of mouse serum (Invitrogen, USA) or human serum (Sigma Aldrich, USA) at 37 °C (Supplementary Fig. 3, 4). At each time point post-incubation, 35 μL of the mixture was added to an Eppendorf tube, and the proteins were precipitated by adding an equal volume of acetonitrile. The tubes were centrifuged at 16,000 rpm, 4 °C for 20 min, and the stability was monitored by radio-HPLC, expressed as the RCP at the different time points.

[2] = design: method as in PMID 31482426; conditions: all patients; cited from earlier work
[3] = Stability in PBS at 37 °C (radio-HPLC); format: physicochemical
Procedure: as §1

[4] = Stability in human serum at 37 °C (radio-HPLC); format: in vitro ADME; conditions: 0 h
Procedure: as §1

[5] = tested on: PC-3 cells; experiment: Uptake and specificity in PC-3 cells; format: cell-based, human; conditions: 1 h 37 °C
Procedure: PC-3 cells were seeded at 2.5 × 10^5 cells/well into 12 well plates 18–24 h prior to the experiment. […] Hereafter, cells were washed twice with PBS and subsequently lysed with 0.1 M NaOH for 20 min at room temperature (RT). The cell lysates were collected and measured using a gamma counter (1480 WIZARD automatic γ-counter, PerkinElmer, The Netherlands). […] Hereafter, cells were washed twice with cold PBS and lysed with 0.1 M NaOH for 20 min at RT. The cell lysates were collected and measured to determine the amount of radioactivity in a gamma counter. To correct for cell density, cells from two separate wells were counted (Countess counter, Invitrogen, The Netherlands), and data was expressed as percentage of added dose (AD) per 2.5 × 10^5 cells.

[6] = design: method as in PMID 35027371, PMID 28644732; conditions: compared with RM2; cited from earlier work

intact radiolabeled ligand (RCP) [1] | intact radiolabeled ligand (RCP) ([3]; 0 h) | intact radiolabeled ligand (RCP) ([3]; 1 h) | intact radiolabeled ligand (RCP) ([3]; 4 h) | intact radiolabeled ligand (RCP) ([3]; 24 h) | intact radiolabeled ligand (RCP) ([3]; 48 h) | intact radiolabeled ligand (RCP) ([3]; 72 h) | intact radiolabeled ligand (RCP) [4] | Structure (SMILES) | tolerability in patients [2] | uptake in the presence of Tyr^4-BBN ([5]; 10^-9 M + 10^-6 M Tyr^4-BBN) | uptake ([5]; 10^-9 M, per 2.5 × 10^5 cells) | lipophilicity (structure and LogD) [6]
97.4 ± 0.3% | 97.4 ± 0.3% | 97.8 ± 0.4% | 96.7 ± 0.5% | 95.6 ± 0.3% | 87.6 ± 0.6% | 80.4 ± 0.8% | 97.4 ± 0.3% | CC(C)C[C@H](NC(=O)C[C@H](O)[C@H](CC(C)C)NC(=O)[C@H](Cc1c[nH]cn1)NC(=O)CNC(=O)[C@@H](NC(=O)[C@H](C)NC(=O)[C@H](Cc1c[nH]c2ccccc12)NC(=O)[C@H](CCC(N)=O)NC(=O)[C@@H](Cc1ccccc1)NC(=O)CN1CCC(NC(=O)CN2CCN(CC(=O)O)CCN(CC(=O)O)CCN(CC(=O)O)CC2)CC1)C(C)C)C(N)=O [[^177Lu]Lu-RM2] [metal not drawn] | well tolerated | < 1 % AD | 10.96 ± 3.46 % AD | –
– | – | – | – | – | – | – | – | CC(C)CC(CC(C)C)NC(=O)[C@H](Cc1cnc[nH]1)NC(=O)CNC(=O)[C@@H](NC(=O)[C@H](C)NC(=O)[C@H](Cc1c[nH]c2ccccc12)NC(=O)[C@H](CCC(N)=O)NC(=O)[C@@H](Cc1ccccc1)NC(=O)COCC(=O)Nc1ccc(CNC(=O)CN2CCN(CC(=O)O)CCN(CC(=O)O)CCN(CC(=O)O)CC2)cc1)C(C)C [NeoB, DOTA-pADA-D-Phe-Gln-Trp-Ala-Val-Gly-His-NH-CH[CH2-CH(CH3)2]2] | – | – | – | more lipophilic
